Measurements as given in patent publication US20210015884A1 (priority 2018, published 2021).

Experiments:
[1] = system: IVA/PC virus; assay type: cell-based, influenza A virus
[2] = system: IVA/PC virus; experiment: microbe, parasite or virus in culture; assay type: cell-based; details: Influenza A virus, MDCK, read-out: IC50 of Zanamivir
[3] = system: m^6A methylation in viral RNA; assay type: cell-based, influenza A virus

## Cc1ccc(Cl)c(Nc2ccccc2C(=O)O)c1Cl [MA, meclofenamic acid]
[1]
  effect on viral resistance to Zanamivir: potentiates viral resistance to Zanamivir

## CC(=O)N[C@H]1[C@H]([C@H](O)[C@H](O)CO)OC(C(=O)O)=C[C@@H]1N=C(N)N [Zanamivir]
[2]
  IC50: 2 nM

## 5′ GGACUGGACUGGACUGGACU 3′ (chemistry not given here) [Target]
[3]
  m^6A methylation in corresponding viral RNA: concomitant decrease
